# According to patent US9980943B2, “Methods of treating muscular dystrophy” (BOARD OF REGENTS OF THE NEVADA SYSTEM OF HIGHER EDUCATION, …, priority 2013, dated 2018):
# Values joined by “and” are separate entries in the source; they are usually repeats but may differ in a detail not shown here. Identical values can stand only once.
# Columns and labels:
# Format in all cases: cell-based, mouse
# [1] = system: α7 integrin (LacZ reporter in α7βgal+/− myoblasts); assay: Myoblast α7+/LacZ integrin FDG assay (Burkin assay in myoblasts, 96-well); conditions: 96-well
# [2] = system: α7 integrin (LacZ reporter in α7+/LacZ myotubes); assay: Myotube α7 integrin FDG assay (Burkin assay in myotubes, 96-well); conditions: for Burkin Assay in Myotubes, value relative to DMSO: SU9516 analogs, 96-well, N=3-6
# [3] = system: β-galactosidase in CMV-LacZ C2C12 myoblasts; assay: CMV-LacZ secondary screen in C2C12 myoblasts (β-Gal stabilizing assay); conditions: for CMV-LACZ in Myoblasts, value relative to DMSO: SU9516 analogs, C2C12 CMV-LacZ, N=2; for CMV-LACZ in Myoblasts (β-galactosidase activity relative to DMSO): CMV-LacZ C2C12 myoblasts
# Outline: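 β-gal stabilization was measured in C2C12 myoblasts or myotubes stably transfected with a CMV-driven LacZ construct, using the FDG β-gal assay. Compounds were tested in dose-response at 0.5, 1, 5, 10, 20 and 40 μM, with two replicates per point.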
# [4] = system: β-galactosidase in CMV-LacZ C2C12 myotubes; assay: CMV-LacZ secondary screen in C2C12 myotubes (β-Gal stabilizing assay); conditions: for CMV-LACZ in Myotubes, value relative to DMSO: SU9516 analogs, C2C12 CMV-LacZ, N=2; for CMV-LACZ in Myotubes, signal relative to DMSO: C2C12 CMV-LacZ myotubes, fold relative to DMSO
# Outline: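 Stable CMV-LacZ C2C12 clone; six-point curve 0.5–40 μM; duplicates.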
compound,measurement,setting,value
Cc1ccc2c(c1)/C(=C/c1ccccc1F)C(=O)N2 [MLS001202330-01],"Burkin Assay in Myoblasts, value relative to DMSO","[1]; 0.5 uM, SU9516 analogs, N=3-6",0.9738
same,"Burkin Assay in Myoblasts, value relative to DMSO","[1]; 1 uM, SU9516 analogs, N=3-6",1.028
same,"Burkin Assay in Myoblasts, value relative to DMSO","[1]; 5 uM, SU9516 analogs, N=3-6",0.9558
same,"Burkin Assay in Myoblasts, value relative to DMSO","[1]; 10 uM, SU9516 analogs, N=3-6",0.9341
same,"Burkin Assay in Myoblasts, value relative to DMSO","[1]; 20 uM, SU9516 analogs, N=3-6",0.8305
same,"Burkin Assay in Myoblasts, value relative to DMSO","[1]; 40 uM, SU9516 analogs, N=3-6",0.6468
same,"Burkin Assay in Myotubes, value relative to DMSO",[2]; 0.5 uM,0.9709
same,"Burkin Assay in Myotubes, value relative to DMSO",[2]; 1 uM,0.9174
same,"Burkin Assay in Myotubes, value relative to DMSO",[2]; 5 uM,0.9123
same,"Burkin Assay in Myotubes, value relative to DMSO",[2]; 10 uM,1.017
same,"Burkin Assay in Myotubes, value relative to DMSO",[2]; 20 uM,0.6303
same,"Burkin Assay in Myotubes, value relative to DMSO",[2]; 40 uM,0.6207
same,"CMV-LACZ in Myoblasts, value relative to DMSO",[3]; 0.5 uM,0.7417
same,"CMV-LACZ in Myoblasts, value relative to DMSO",[3]; 1 uM,0.9325
same,"CMV-LACZ in Myoblasts, value relative to DMSO",[3]; 5 uM,1.0099
same,"CMV-LACZ in Myoblasts, value relative to DMSO",[3]; 10 uM,0.9082
same,"CMV-LACZ in Myoblasts, value relative to DMSO",[3]; 20 uM,0.9511
same,"CMV-LACZ in Myoblasts, value relative to DMSO",[3]; 40 uM,0.7619
same,"CMV-LACZ in Myotubes, value relative to DMSO",[4]; 0.5 uM,0.8314
same,"CMV-LACZ in Myotubes, value relative to DMSO",[4]; 1 uM,0.9562
same,"CMV-LACZ in Myotubes, value relative to DMSO",[4]; 5 uM,0.9600
same,"CMV-LACZ in Myotubes, value relative to DMSO",[4]; 10 uM,0.8717
same,"CMV-LACZ in Myotubes, value relative to DMSO",[4]; 20 uM,0.9168
same,"CMV-LACZ in Myotubes, value relative to DMSO",[4]; 40 uM,0.8242
Cc1cccc(Sc2nc(-c3ccccc3)ccc2C#N)c1 [MLS000325736-01],"Burkin Assay in Myoblasts, signal relative to DMSO","[1]; 0.5 uM, α7+/LacZ myoblasts",0.7757
same,"Burkin Assay in Myoblasts, signal relative to DMSO","[1]; 1 uM, α7+/LacZ myoblasts",0.7875
same,"Burkin Assay in Myoblasts, signal relative to DMSO","[1]; 5 uM, α7+/LacZ myoblasts",1.423
same,"Burkin Assay in Myoblasts, signal relative to DMSO","[1]; 10 uM, α7+/LacZ myoblasts",1.17
same,"Burkin Assay in Myoblasts, signal relative to DMSO","[1]; 20 uM, α7+/LacZ myoblasts",0.912
same,"Burkin Assay in Myoblasts, signal relative to DMSO","[1]; 40 uM, α7+/LacZ myoblasts",0.8854
same,"Burkin Assay in Myotubes, α7 integrin LacZ reporter signal relative to DMSO",[2]; 0.5 uM,0.9135
same,"Burkin Assay in Myotubes, α7 integrin LacZ reporter signal relative to DMSO",[2]; 1 uM,0.8017
same,"Burkin Assay in Myotubes, α7 integrin LacZ reporter signal relative to DMSO",[2]; 5 uM,1.027
same,"Burkin Assay in Myotubes, α7 integrin LacZ reporter signal relative to DMSO",[2]; 10 uM,1.168
same,"Burkin Assay in Myotubes, α7 integrin LacZ reporter signal relative to DMSO",[2]; 20 uM,0.6582
same,"Burkin Assay in Myotubes, α7 integrin LacZ reporter signal relative to DMSO",[2]; 40 uM,0.6972
same,CMV-LACZ in Myoblasts (β-galactosidase activity relative to DMSO),[3]; 0.5 uM,0.7862
same,CMV-LACZ in Myoblasts (β-galactosidase activity relative to DMSO),[3]; 1 uM,0.9135
same,CMV-LACZ in Myoblasts (β-galactosidase activity relative to DMSO),[3]; 5 uM,0.9758
same,CMV-LACZ in Myoblasts (β-galactosidase activity relative to DMSO),[3]; 10 uM,1.0696
same,CMV-LACZ in Myoblasts (β-galactosidase activity relative to DMSO),[3]; 20 uM,1.0111
same,CMV-LACZ in Myoblasts (β-galactosidase activity relative to DMSO),[3]; 40 uM,1.0537
same,"CMV-LACZ in Myotubes, signal relative to DMSO",[4]; 0.5 uM,0.9263
same,"CMV-LACZ in Myotubes, signal relative to DMSO",[4]; 1 uM,0.8968
same,"CMV-LACZ in Myotubes, signal relative to DMSO",[4]; 5 uM,0.9630
same,"CMV-LACZ in Myotubes, signal relative to DMSO",[4]; 10 uM,0.9324
same,"CMV-LACZ in Myotubes, signal relative to DMSO",[4]; 20 uM,0.8244
same,"CMV-LACZ in Myotubes, signal relative to DMSO",[4]; 40 uM,0.9889
O=C1Nc2ccccc2/C1=C/c1ccccc1Cl [MLS001202425-01],"Burkin Assay in Myoblasts, value relative to DMSO","[1]; 0.5 uM, SU9516 analogs, N=3-6",1.2214
same,"Burkin Assay in Myoblasts, value relative to DMSO","[1]; 1 uM, SU9516 analogs, N=3-6",1.219
same,"Burkin Assay in Myoblasts, value relative to DMSO","[1]; 5 uM, SU9516 analogs, N=3-6",0.9673
same,"Burkin Assay in Myoblasts, value relative to DMSO","[1]; 10 uM, SU9516 analogs, N=3-6",0.8645
same,"Burkin Assay in Myoblasts, value relative to DMSO","[1]; 20 uM, SU9516 analogs, N=3-6",0.7465
same,"Burkin Assay in Myoblasts, value relative to DMSO","[1]; 40 uM, SU9516 analogs, N=3-6",0.3445
same,"Burkin Assay in Myotubes, value relative to DMSO",[2]; 0.5 uM,1.148
same,"Burkin Assay in Myotubes, value relative to DMSO",[2]; 1 uM,1.205
same,"Burkin Assay in Myotubes, value relative to DMSO",[2]; 5 uM,0.9499
same,"Burkin Assay in Myotubes, value relative to DMSO",[2]; 10 uM,0.8033
same,"Burkin Assay in Myotubes, value relative to DMSO",[2]; 20 uM,0.5178
same,"Burkin Assay in Myotubes, value relative to DMSO",[2]; 40 uM,0.354
same,"CMV-LACZ in Myoblasts, value relative to DMSO",[3]; 0.5 uM,1.0625
same,"CMV-LACZ in Myoblasts, value relative to DMSO",[3]; 1 uM,1.0919
same,"CMV-LACZ in Myoblasts, value relative to DMSO",[3]; 5 uM,0.8675
same,"CMV-LACZ in Myoblasts, value relative to DMSO",[3]; 10 uM,1.1386
same,"CMV-LACZ in Myoblasts, value relative to DMSO",[3]; 20 uM,0.9081
same,"CMV-LACZ in Myoblasts, value relative to DMSO",[3]; 40 uM,0.6233
same,"CMV-LACZ in Myotubes, value relative to DMSO",[4]; 0.5 uM,0.8793
same,"CMV-LACZ in Myotubes, value relative to DMSO",[4]; 1 uM,1.0185
same,"CMV-LACZ in Myotubes, value relative to DMSO",[4]; 5 uM,1.1496
same,"CMV-LACZ in Myotubes, value relative to DMSO",[4]; 10 uM,1.0423
same,"CMV-LACZ in Myotubes, value relative to DMSO",[4]; 20 uM,0.9918
same,"CMV-LACZ in Myotubes, value relative to DMSO",[4]; 40 uM,0.9976
CC(C(=O)Nc1ccc(C#N)cc1)N(C)CC(=O)Nc1cccc(F)c1 (stereo not drawn) [MLS001033255-01],"Burkin Assay in Myoblasts, signal relative to DMSO","[1]; 0.5 uM, α7+/LacZ myoblasts",1.013
same,"Burkin Assay in Myoblasts, value relative to DMSO","[1]; 0.5 uM, α7+/LacZ myoblasts",0.9467
same,"Burkin Assay in Myoblasts, signal relative to DMSO","[1]; 1 uM, α7+/LacZ myoblasts",0.9373
same,"Burkin Assay in Myoblasts, value relative to DMSO","[1]; 1 uM, α7+/LacZ myoblasts",0.9407
same,"Burkin Assay in Myoblasts, signal relative to DMSO","[1]; 5 uM, α7+/LacZ myoblasts",1.017
same,"Burkin Assay in Myoblasts, value relative to DMSO","[1]; 5 uM, α7+/LacZ myoblasts",0.9509
same,"Burkin Assay in Myoblasts, signal relative to DMSO","[1]; 10 uM, α7+/LacZ myoblasts",1.124
same,"Burkin Assay in Myoblasts, value relative to DMSO","[1]; 10 uM, α7+/LacZ myoblasts",0.9542
same,"Burkin Assay in Myoblasts, signal relative to DMSO","[1]; 20 uM, α7+/LacZ myoblasts",0.985
same,"Burkin Assay in Myoblasts, value relative to DMSO","[1]; 20 uM, α7+/LacZ myoblasts",0.7962
same,"Burkin Assay in Myoblasts, signal relative to DMSO","[1]; 40 uM, α7+/LacZ myoblasts",0.8279
same,"Burkin Assay in Myoblasts, value relative to DMSO","[1]; 40 uM, α7+/LacZ myoblasts",0.799
same,Burkin Assay in Myotubes (signal relative to DMSO),[2]; 0.5 uM,0.9678
same,Burkin Assay in Myotubes (signal relative to DMSO),[2]; 1 uM,0.9526
same,Burkin Assay in Myotubes (signal relative to DMSO),[2]; 5 uM,1.213
same,Burkin Assay in Myotubes (signal relative to DMSO),[2]; 10 uM,0.997
same,Burkin Assay in Myotubes (signal relative to DMSO),[2]; 20 uM,0.8683
same,Burkin Assay in Myotubes (signal relative to DMSO),[2]; 40 uM,1.04
same,"Burkin Assay in Myotubes, α7 integrin LacZ reporter signal relative to DMSO",[2]; 0.5 uM,0.91
same,"Burkin Assay in Myotubes, α7 integrin LacZ reporter signal relative to DMSO",[2]; 1 uM,0.8188
same,"Burkin Assay in Myotubes, α7 integrin LacZ reporter signal relative to DMSO",[2]; 5 uM,1.086
same,"Burkin Assay in Myotubes, α7 integrin LacZ reporter signal relative to DMSO",[2]; 10 uM,1.246
same,"Burkin Assay in Myotubes, α7 integrin LacZ reporter signal relative to DMSO",[2]; 20 uM,0.8337
same,"Burkin Assay in Myotubes, α7 integrin LacZ reporter signal relative to DMSO",[2]; 40 uM,1.232
same,CMV-LACZ in Myoblasts (β-galactosidase activity relative to DMSO),[3]; 0.5 uM,0.7590
same,CMV-LACZ in Myoblasts (β-galactosidase activity relative to DMSO),[3]; 1 uM,1.0723
same,CMV-LACZ in Myoblasts (β-galactosidase activity relative to DMSO),[3]; 5 uM,0.8766
same,CMV-LACZ in Myoblasts (β-galactosidase activity relative to DMSO),[3]; 10 uM,1.0219
same,CMV-LACZ in Myoblasts (β-galactosidase activity relative to DMSO),[3]; 20 uM,1.1919
same,CMV-LACZ in Myoblasts (β-galactosidase activity relative to DMSO),[3]; 40 uM,0.7905
same,"CMV-LACZ in Myotubes, signal relative to DMSO",[4]; 0.5 uM,1.1038
same,"CMV-LACZ in Myotubes, signal relative to DMSO",[4]; 1 uM,1.1438
same,"CMV-LACZ in Myotubes, signal relative to DMSO",[4]; 5 uM,0.9525 and 0.8423
same,"CMV-LACZ in Myotubes, signal relative to DMSO",[4]; 10 uM,1.0297 and 1.045
same,"CMV-LACZ in Myotubes, signal relative to DMSO",[4]; 20 uM,0.9930 and 1.013
same,"CMV-LACZ in Myotubes, signal relative to DMSO",[4]; 40 uM,0.7740 and 1.236
